In patent US20080139534A1, “Bisbenzamidines and bisbenzamidoximes for the treatment of human African trypanosomiasis” (XAVIER UNIVERSITY OF LOUISIANA, priority 2006, published 2008):
Marks after values point to notes of the source that are not given here.

Legend:
[1] = tested on: T. b. brucei Lab 110 EATRO; assay: In vitro trypanocidal activity, bloodforms in HMI-18 medium, Coulter counts; type: cell-based, Trypanosoma brucei brucei; conditions: 48 h exposure, bloodforms; read-out: Lab 100 EATRO IC50
Method: (§1) The compounds were tested against trypanosome isolates grown as blood forms in HMI-18 medium containing 20% horse serum in 24 well microplates at 37° C. in 5% CO2. Wells were inoculated with 1×10^5 trypanosomes. […] One-half the volume was replaced daily. Cell counts were made daily with a Coulter Counter, Model Z1 (Beckman Coulter, Miami, Fla., USA). Cells were diluted with Isoton I buffer (Beckman Coulter) and the aperture was standardized at 5.14 μm. Background checks were performed daily on 1:10 dilutions of medium. Counts, normalization, and coincident counts were accounted for by the standardized Coulter analysis program. Occasionally, hemocytometer counts were performed as a check on the validity of the Coulter program. IC50 values were determined after 48 h from semi-log plots and the values are the result of duplicate determinations. Initially a broad concentration curve was used and then a close concentration curve from which IC50 values were determined. Assays were done in duplicate and each point was the average of the two. Control cells grew to 5×10^6/ml.
(§2) Coulter counts were made daily and IC50 values determined after 48 hours exposure.

[2] = tested on: T. b. rhodesiense KETRI 243; assay: as above; type: cell-based, Trypanosoma brucei rhodesiense; conditions: 48 h exposure
Method: as §1, §2

calf thymus DNA = assay: Thermal denaturation study, DNA binding affinity (ΔTm); conditions: 1:5 compound to base pair ratio;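 also: shift in midpoint melting temperature of calf thymus DNA thermal denaturation curves caused by compound binding, values averaged over at least two determinations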
Method: (§3) The binding affinity was measured by determining the change in the midpoint (Tm) of the thermal denaturation curves of calf thymus DNA as well as poly(dA-dT) at a 1:5 compound to base pair ratio.

poly(dA-dT) = assay: as above; conditions: 1:5 compound to base pair ratio;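 also: shift in the midpoint temperature of the thermal melting curve of poly(dA-dT), each value the mean of two or more independent determinations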
Method: as §3

[3] = tested on: T. b. brucei Lab 110 EATRO; assay: In vivo efficacy in infected mice; set-up: species or system Trypanosoma brucei brucei
Method: Female Swiss-Webster mice (weight, 20 g) were infected (intraperitoneally) with 2.5×10^5 trypanosomes from rat blood, and the infection was allowed to develop for 24 h before drug treatment was begun. Groups of three mice each were injected (intraperitoneally) with each drug concentration. All of the experiments included a group of untreated controls. […] Parasitemia of animals dying of infection averaged 0.5-1.0×10^9/mL of blood. These infections are very predictable and daily counts were not done because of the labor involved. […] Animals were monitored weekly for parasites in tail vein blood smears. Mice were considered cured if they survived more than 30 days after the death of the last control with no parasites in tail vein blood smears. MSD (mean survival in days) was also recorded for each group. It is the average time of survival of the animals in the group, exclusive of cured animals.
Mice were infected with 250,000 parasites and dosing commenced 24 h. post infection. Mice were separated into groups of three and given single i.p doses for 3 days unless otherwise noted. Infected untreated controls were used for each experiment. Mice were considered cured if surviving more than 30 days beyond death of controls without parasites in tail vein blood smears. MSD, mean survival in days, exclusive of cured animals.

[4] = tested on: T. b. rhodesiense KETRI 2002; assay: In vivo efficacy in infected mice, clinical isolate; set-up: species or system Trypanosoma brucei rhodesiense
Method: (§4) Female Swiss-Webster mice (weight, 20 g) were infected (intraperitoneally) with 2.5×10^5 trypanosomes from rat blood, and the infection was allowed to develop for 24 h before drug treatment was begun. Groups of three mice each were injected (intraperitoneally) with each drug concentration. All of the experiments included a group of untreated controls. […] Animals were monitored weekly for parasites in tail vein blood smears. Mice were considered cured if they survived more than 30 days after the death of the last control with no parasites in tail vein blood smears. MSD (mean survival in days) was also recorded for each group. It is the average time of survival of the animals in the group, exclusive of cured animals.
(§5) Mice were infected on day 1 with 2.5×10^5 trypanosomes and the infections allowed to progress 24 h. prior to dosing. Animals were dosed 1×/day i.p for 3 days. Cured animals survived >30 days beyond the death of untreated, infected controls. MSD=mean survival in days exclusive of cured animals. Dose as mg/kg/day.

[5] = tested on: T. b. rhodesiense KETRI 1992; assay: as above; set-up: species or system Trypanosoma brucei rhodesiense
Method: as §4, §5

[6] = mice, 1, 2.5, 5, 10, 15, 25 mg/kg/day i.p. for 3 days (all doses failed to cure)
[7] = mice, 1, 2.5, 5, 10, 15, 25 mg/kg/day i.p. for 3 days (all doses)
[8] = mice, 1 mg/kg/day i.p. for 3 days
[9] = mice, 5 mg/kg/day i.p. for 3 days
[10] = mice, 10 mg/kg/day i.p. for 3 days
[11] = mice, 15 mg/kg/day i.p. for 3 days
[12] = mice, 25 mg/kg/day i.p. for 3 days
[13] = KETRI 2002, 1 mg/kg/day i.p. for 3 days
[14] = KETRI 2002, 5 mg/kg/day i.p. for 3 days
[15] = KETRI 2002, 10 mg/kg/day i.p. for 3 days
[16] = KETRI 2002, 25 mg/kg/day i.p. for 3 days
[17] = KETRI 1992, 1 mg/kg/day i.p. for 3 days
[18] = KETRI 1992, 5 mg/kg/day i.p. for 3 days
[19] = KETRI 1992, 10 mg/kg/day i.p. for 3 days
[20] = KETRI 2002, 15 mg/kg/day i.p. for 3 days
[21] = KETRI 1992, 25 mg/kg/day i.p. for 3 days

| Structure (SMILES) | IC50 [1] [nM] | IC50 [2] [nM] | DNA Binding Δ Tm Calf thymus (calf thymus DNA) [°C] | DNA Binding Δ Tm Poly (dA-dT) (poly(dA-dT)) [°C] | further results |
| --- | --- | --- | --- | --- | --- |
| CC(=O)O/N=C(\N)c1ccc(NC(=O)CCCC(=O)Nc2ccc(/C(N)=N/OC(C)=O)cc2)cc1 [TH724, N,N′-bis[4-(N-acetoxyamidino)phenyl]pentanediamide] | – | – | – | – | melting point: 225 to 228 °C |
| Cc1nc(-c2ccc(NC(=O)CCCC(=O)Nc3ccc(-c4noc(C)n4)cc3)cc2)no1 [TH728, N,N′-Bis[4-(5-Methyl-1,2,4-oxadiazol-3yl)phenyl]pentanediamide] | – | – | – | – | melting point: 235 to 237 °C |
| CCCCCC(=O)ONC(=N)c1ccc(NC(=O)CCCC(=O)Nc2ccc(C(=N)NOC(=O)CCCCC)cc2)cc1 [TH742, N,N′-Bis[4-(N-Pentylcarbonyloxyamidino)phenyl]pentanediamide] | – | – | – | – | melting point: 182 to 184 °C |
| CCCCCc1nc(-c2ccc(NC(=O)CCCC(=O)Nc3ccc(-c4noc(CCCCC)n4)cc3)cc2)no1 [TH743, N,N′-Bis[4-(5-Pentyl-1,2,4-oxadiazol-3yl)phenyl]pentanediamide] | – | – | – | – | melting point: 171 to 173 °C |
| C(=NNc1ccccc1)c1ccc(N2CCN(c3ccc(C=NNc4ccccc4)cc3)CC2)cc1 [compound 0116] | 1740 | 1870 | −0.2 | 0.0 | – |
| CCOC(=O)c1ccc(N2CCN(c3ccc(C(=O)OCC)cc3)CC2)cc1 [compound 0118] | 340 | 350 | 0.6 | 0.0 | – |
| O=[N+]([O-])c1ccc(N2CCN(c3ccc([N+](=O)[O-])cc3)CC2)cc1 [compound 0119] | 137 | 250 | 0.1 | 0.0 | – |
| CC(=O)c1ccc(N2CCN(c3ccc(C(C)=O)cc3)CC2)cc1 [compound 0123] | 2350 | 1550 | 0.1 | 0.0 | – |
| Cl.Cl.c1cc(N2CCN(c3ccc(C4=NCCN4)cc3)CC2)ccc1C1=NCCN1 [compound 0126] | 16 | 6.5 | 15.0 | 19.4 | – |
| CCCCCCNC(=N)c1ccc(N2CCN(c3ccc(C(=N)NCCCCCC)cc3)CC2)cc1.Cl.Cl [compound 0128] | 13 | 23.9 | 10.7 | 10.1 | # Cured/#Treated (%) [3, 6]: 0/3^a; MSD [3, 7]: 5.3 to 10.6 days |
| Cl.Cl.N=C(NC1CCCCCC1)c1ccc(N2CCN(c3ccc(C(=N)NC4CCCCCC4)cc3)CC2)cc1 [compound 0129] | 18 | 22 | 15.6 | 18.7 | # Cured/#Treated (%) [3, 8]: 0/3; MSD [3, 8]: 7.5 days; MSD [3, 9]: 9 days; MSD ([3]; mice, 7.5 mg/kg/day i.p. for 3 days): >30 days; MSD [3, 10]: >30 days; MSD [3, 11]: >30 days |
| CCCCCCCCCNC(=N)c1ccc(N2CCN(c3ccc(C(=N)NCCCCCCCCC)cc3)CC2)cc1.Cl.Cl [compound 0132] | 100 | 210 | 1.3 | 2.7 | – |
| CCCCCCCNC(=N)c1ccc(N2CCN(c3ccc(C(=N)NCCCCCCC)cc3)CC2)cc1.Cl.Cl [compound 0133] | 100 | 57 | 8.7 | 8.5 | – |
| CC(C)CCNC(=N)c1ccc(N2CCN(c3ccc(C(=N)NCCC(C)C)cc3)CC2)cc1.Cl.Cl [compound 0135] | 72 | 61 | 15.3 | 21.8 | – |
| CCCCCCCCCCCCNC(=N)c1ccc(N2CCN(c3ccc(C(=N)NCCCCCCCCCCCC)cc3)CC2)cc1.Cl.Cl [compound 0136] | 660 | 125 | 0.6 | 0.0 | – |
| CCC(C)CNC(=N)c1ccc(N2CCN(c3ccc(C(=N)NCC(C)CC)cc3)CC2)cc1.Cl.Cl (centres unmarked) [compound 0138] | 13 | 39 | 12.9 | 16.0 | – |
| CCNC(=N)c1ccc(N2CCN(c3ccc(C(=N)NCC)cc3)CC2)cc1.Cl.Cl [compound 0140] | 13 | 33 | 15.3 | 18.6 | # Cured/#Treated (%) [3, 8]: 0/3; MSD [3, 8]: 5 days; MSD [3, 9]: 18 days; MSD [3, 10]: 17 days |
| N=C(N)c1ccc(OCc2ccc(COc3ccc(C(=N)N)cc3)cc2)cc1 [compound 0508] | 0.295 | 0.665 | 12.5 | 18.0 | # Cured/#Treated (%) [3, 6]: 0/3^a; MSD [3, 7]: 5 to 17.3 days |
| N=C(N)c1ccc(OCc2ccccc2COc2ccc(C(=N)N)cc2)cc1 [compound 0513] | 1.25 | 2.55 | −0.2 | −0.1 | # Cured/#Treated (%) [3, 6]: 0/3^a; MSD [3, 7]: 5 days |
| N=C(N)c1ccc(COc2ccccc2OCc2ccc(C(=N)N)cc2)cc1 [compound 0519] | 1.3 | 2.1 | 0.1 | −0.1 | # Cured/#Treated (%) [3, 6]: 0/3^a; MSD [3, 7]: 5 days |
| N=C(N)c1ccc(NC(=O)CCCCCCC(=O)Nc2ccc(C(=N)N)cc2)cc1 [compound 0705] | 2.8 | 1.45 | – | – | MSD [3, 8]: 10 days; MSD [3, 9]: >30 days; MSD [3, 10]: >30 days; MSD [3, 12]: >30 days; MSD [4, 13]: >30 days; MSD [4, 14]: >30 days; MSD [4, 15]: >30 days; MSD [4, 16]: >30 days; #Cured/Total [5, 17]: 0/3; MSD [5, 17]: 15.3 days; #Cured/Total [5, 18]: 0/3; MSD [5, 18]: 22.6 days; #Cured/Total [5, 19]: 0/3; MSD [5, 19]: 29.6 days |
| N=C(N)c1ccc(NC(=O)CCCCCC(=O)Nc2ccc(C(=N)N)cc2)cc1 [compound 0706] | 1.62 | 2.05 | – | – | MSD [3, 8]: >30 days; MSD [3, 9]: >30 days; MSD [3, 10]: >30 days; MSD [3, 11]: >30 days; MSD [4, 13]: >30 days; MSD [4, 14]: >30 days; MSD [4, 15]: >30 days; MSD [4, 20]: >30 days; #Cured/Total [5, 17]: 0/3; MSD [5, 17]: 14 days; #Cured/Total [5, 18]: 0/3; MSD [5, 18]: 18.3 days; #Cured/Total [5, 19]: 0/3; MSD [5, 19]: 18.6 days; #Cured/Total [5, 21]: 0/3; MSD [5, 21]: 19.3 days |
| N=C(N)c1ccc(NC(=O)CCCCCCCCC(=O)Nc2ccc(C(=N)N)cc2)cc1 [compound 0709] | 2 | 4.1 | – | – | MSD [3, 8]: 12 days; MSD [3, 9]: >30 days; MSD [3, 10]: >30 days; MSD [3, 12]: >30 days; #Cured/Total [4, 13]: 0/3; MSD [4, 13]: 18 days; MSD [4, 14]: 33 days; MSD [4, 15]: >30 days; MSD [4, 20]: >30 days; MSD [4, 16]: >30 days; #Cured/Total [5, 17]: 0/3; MSD [5, 17]: 12.6 days; #Cured/Total [5, 18]: 0/3; MSD [5, 18]: 13.7 days; #Cured/Total [5, 19]: 0/3; MSD [5, 19]: 15.7 days; #Cured/Total [5, 21]: 0/3; MSD [5, 21]: 26.6 days |
